{"source": "patent US20080153872A1", "about": "“Bis-(Coumarin) Compounds With Anti-Inflammatory Activity” (priority 2005, published 2008)", "key": {"[1]": {"biological_target": "T1, human 5-LO (Homo sapiens, UniProt P09917)", "T1 construct": "Human peripheral mononuclear blood cells were isolated using Ficoll density separation; endogenous in cells; host or cells: human peripheral blood mononuclear cells", "T1 sequence (P09917 1-674)": "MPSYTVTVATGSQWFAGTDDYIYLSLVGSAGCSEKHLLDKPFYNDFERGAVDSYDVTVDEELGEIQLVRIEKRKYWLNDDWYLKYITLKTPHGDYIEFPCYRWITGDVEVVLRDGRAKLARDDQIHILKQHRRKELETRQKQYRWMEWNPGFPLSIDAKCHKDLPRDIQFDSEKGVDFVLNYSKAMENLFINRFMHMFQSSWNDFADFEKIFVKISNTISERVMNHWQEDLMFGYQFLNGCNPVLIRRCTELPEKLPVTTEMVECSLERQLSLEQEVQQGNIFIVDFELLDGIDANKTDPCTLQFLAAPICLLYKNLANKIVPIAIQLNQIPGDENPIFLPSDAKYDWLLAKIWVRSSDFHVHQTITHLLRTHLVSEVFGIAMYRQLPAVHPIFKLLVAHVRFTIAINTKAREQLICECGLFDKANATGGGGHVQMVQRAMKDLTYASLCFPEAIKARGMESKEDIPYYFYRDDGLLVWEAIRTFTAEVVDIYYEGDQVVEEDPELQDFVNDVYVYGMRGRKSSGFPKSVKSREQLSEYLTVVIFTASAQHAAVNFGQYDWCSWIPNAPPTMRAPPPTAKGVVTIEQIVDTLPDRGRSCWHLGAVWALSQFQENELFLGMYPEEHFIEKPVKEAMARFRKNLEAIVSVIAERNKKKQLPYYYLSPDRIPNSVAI", "experiment": "Human 5-Lipoxygenase, 5-LO, assay in peripheral mononuclear blood cells", "type": "cell-based", "details": "10 μM concentration, LTB4 readout", "procedure": "(§1) All compounds were dissolved in dimethyl sulfoxide (DMSO). Final concentration of the DMSO in all tests was 1% (v/v). Inhibition in all tests is considered preferred if it exceeds 50% at 10 μM concentration (or less).\nHuman peripheral mononuclear blood cells were isolated using Ficoll density separation. Cells were incubated in Hanks Balanced Salt Solution (HBSS) with compounds for 15 minutes at 37° C. Substrate (arachidonic acid) was added in 20 μM final concentration and cells were incubated for another 15 minutes. LTB4 as a final product of arachidonic acid metabolism was measured using competitive enzyme immunoassay (See, e.g., Safayhi, H. et al. Planta Medica 2000, 66, 110-113) and percentage of inhibition was calculated from the levels of LTB4 in cell supernatant."}, "[2]": {"system": "Balb/C mice", "experiment": "Ovalbumin induced pulmonary eosinophilia in mice", "type": "in vivo, mouse", "details": "OVA sensitized and challenged mice; i.n., i.p. or per os", "procedure": "Male Balb/C mice with a body weight of 20-25 g are randomly divided into groups, and sensitized by an i.p. injection of ovalbumin (OVA, Sigma) on day zero and day fourteen. On the twentieth day, the mice are subjected to a challenge test by i.n. (intranasal) application of OVA (positive control or test groups) or PBS (negative control). The compounds are administered daily i.n., i.p. or per os in different doses starting 2 days before the challenge and up to the completion of the test. Compounds are administered as suspension either in PBS, methyl cellulose or carboxymethyl cellulose with addition od DMSO (up to 5% of the total volume). 48 hours after i.n. application of OVA, the animals are then anaesthetized to obtain bronchoalveolar lavage fluid (BALF), which is used to determine total protein concentration as well as concentrations of cytokines such as IL-1β and TNF-α, absolute number of cells, and percentage of eosinophils in BALF. Bronchoalveolar lavage (BAL) is performed by infusing 1 mL of PBS divided into 3 separate volumes (0.4, 0.3 and 0.3 ml) through trachea into the lungs. The fluid is immediately withdrawn and the cell suspension stored into previously prepared 1.5 mL Eppendorf tube. Bronchoalveolar lavage fluid (BALF) is then centrifuged at […] for 5 min (4° C.). Cells are resuspended in 700 μL of PBS. To prepare cytospins, 320 μL of suspension is centrifuged at 250 rpm for 10 min (Cytospin-3, Shandon Instruments). Cells are stained with Dif-Quik (Dade Behring) to determine percentage of eosinophils by counting of at least 100 cells. The remaining resuspended cells are used for total cell count in BALF analysis (Sysmex SF 3000). Finally, lungs are sampled and stored into 10% formalin for pathohistological evaluation of eosinophil and mononuclear infiltrate. Accumulation of eosinophils and mononuclear cells in peribronchial (PB) and perivascular (PV) lung tissue areas and in alveolar spaces is monitored.\nResults can be expressed as (I) decrease of absolute cell number per mL in BALF, (II) decrease of number of eosinophils per mL in BALF, (III) reduction of relative number (percentage) of eosinophils in BALF, (IV) reduction of cytokine concentrations in BALF, as well as (V) suppression of accumulation of eosinophils and mononuclear cells in peribronchial (PB) and perivascular (PV) lung tissue areas and in alveolar spaces by pathohistological scoring of treated animals compared to positive control (OVA stimulated, but untreated animals).\nFluticasone and beclomethasone are used as standard anti-inflammatory substances, and compared for ability to inhibit eosinophilia to the negative and positive controls."}, "[3]": {"biological_target": "T2, human PDE3 (Homo sapiens, UniProt Q14432)", "T2 construct": "Isolated human platelets are pre-incubated at 25° C; from tissue; host or cells: human platelets", "T2 sequence (Q14432 whole entry)": "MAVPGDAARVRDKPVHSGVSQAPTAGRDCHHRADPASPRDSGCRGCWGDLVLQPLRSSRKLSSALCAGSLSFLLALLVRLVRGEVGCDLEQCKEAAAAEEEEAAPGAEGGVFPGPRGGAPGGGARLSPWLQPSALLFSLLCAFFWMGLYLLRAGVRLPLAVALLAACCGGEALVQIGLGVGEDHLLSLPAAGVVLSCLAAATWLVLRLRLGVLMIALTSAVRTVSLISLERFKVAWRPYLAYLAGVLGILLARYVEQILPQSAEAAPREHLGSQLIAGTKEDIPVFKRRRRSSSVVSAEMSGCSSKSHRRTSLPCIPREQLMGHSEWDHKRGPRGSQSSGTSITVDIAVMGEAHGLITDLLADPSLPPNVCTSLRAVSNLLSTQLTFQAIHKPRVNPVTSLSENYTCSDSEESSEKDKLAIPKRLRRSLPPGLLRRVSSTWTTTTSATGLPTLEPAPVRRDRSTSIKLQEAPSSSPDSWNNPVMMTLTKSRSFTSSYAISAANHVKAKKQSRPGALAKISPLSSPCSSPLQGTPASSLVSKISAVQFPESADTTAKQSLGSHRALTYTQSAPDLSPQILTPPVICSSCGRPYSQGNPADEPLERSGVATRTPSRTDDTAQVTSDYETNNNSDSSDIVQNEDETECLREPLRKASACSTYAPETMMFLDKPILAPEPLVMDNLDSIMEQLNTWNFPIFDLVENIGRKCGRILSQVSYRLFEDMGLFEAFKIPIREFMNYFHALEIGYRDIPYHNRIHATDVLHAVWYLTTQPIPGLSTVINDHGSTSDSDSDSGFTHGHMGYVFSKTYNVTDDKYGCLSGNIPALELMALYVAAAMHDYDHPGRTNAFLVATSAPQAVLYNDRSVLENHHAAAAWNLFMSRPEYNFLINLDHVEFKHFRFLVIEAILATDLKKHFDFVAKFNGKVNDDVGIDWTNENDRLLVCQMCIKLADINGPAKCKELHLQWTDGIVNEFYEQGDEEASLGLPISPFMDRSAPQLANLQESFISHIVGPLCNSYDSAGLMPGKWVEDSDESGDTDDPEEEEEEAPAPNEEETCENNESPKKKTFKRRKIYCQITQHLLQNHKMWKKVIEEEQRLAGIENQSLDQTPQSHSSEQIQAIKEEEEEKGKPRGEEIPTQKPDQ", "experiment": "Human PDE3 assay (platelets)", "type": "biochemical", "details": "10 μM concentration", "procedure": "as §1\nPDE3 assay. Isolated human platelets are pre-incubated at 25° C. in Tris-HCl buffer containing magnesium ions for 15 minutes. 1.01 μM tritium labeled cyclic adenosine monophosphate (cAMP) is added as substrate, followed by incubation at 25° C. for 20 minutes. Percentage of inhibition is calculated by comparing the adenosine levels in supernatant which is formed from cAMP in treated versus control cells."}, "[4]": {"biological_target": "T3, CysLT1 receptor (Homo sapiens, UniProt Q9Y271)", "T3 construct": "expressed in transfected cells; host or cells: CHO-K1", "T3 sequence (Q9Y271 1-337)": "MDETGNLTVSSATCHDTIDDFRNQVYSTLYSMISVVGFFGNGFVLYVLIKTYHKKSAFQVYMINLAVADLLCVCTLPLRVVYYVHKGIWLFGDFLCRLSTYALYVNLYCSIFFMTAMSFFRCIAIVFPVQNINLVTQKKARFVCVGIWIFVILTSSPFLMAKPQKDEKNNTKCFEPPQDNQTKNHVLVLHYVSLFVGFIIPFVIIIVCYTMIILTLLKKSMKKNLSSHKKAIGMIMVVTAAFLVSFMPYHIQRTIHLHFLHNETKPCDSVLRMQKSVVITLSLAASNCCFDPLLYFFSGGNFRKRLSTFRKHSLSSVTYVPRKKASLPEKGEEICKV", "experiment": "Human cysteinyl leukotriene receptor 1 (CysLT1) radioligand binding assay", "details": "10 μM concentration; CHO-K1 cells", "procedure": "as §1\nCysLT1 receptor is involved in immune diseases such as asthma, and has clinical significance as a point of intervention in asthma therapy. CysLT1 receptor is expressed in CHO-K1 cells (Chinese hamster ovary cells K1 clone). This is a competitive radioligand binding assay where substances compete with [^3H]-labeled Leulcotirene D4 (LTD4). Radioactive substance is measured with scintillation counting. Percentage of inhibition is calculated from the total radioactivity of the sample."}}, "data": [{"smiles": "CC(=O)C(c1c(O)c2cccc(C(C)C)c2oc1=O)c1c(O)c2cccc(C(C)C)c2oc1=O", "note": "[Example 19]", "values": [{"measurement": "inhibition of human 5-LO", "setting": "[1]", "result": "significantly relevant activity"}, {"measurement": "reduction of percentage of eosinophils and/or their total number in BALF and/or by histological scoring", "setting": "[2]", "result": "statistically significant reduction"}, {"measurement": "inhibition of human PDE3 activity", "setting": "[3]", "result": "significantly inhibited"}, {"measurement": "CysLT1 receptor, competition with [3H]-LTD4", "setting": "[4]", "result": "significantly relevant activity"}]}, {"smiles": "CC(C)c1cccc2c(O)c(C(CO)c3c(O)c4cccc(C(C)C)c4oc3=O)c(=O)oc12", "note": "[Example 30]", "values": [{"measurement": "inhibition of human 5-LO", "setting": "[1]", "result": "significantly relevant activity"}, {"measurement": "reduction of percentage of eosinophils and/or their total number in BALF and/or by histological scoring", "setting": "[2]", "result": "statistically significant reduction"}, {"measurement": "inhibition of human PDE3 activity", "setting": "[3]", "result": "significantly inhibited"}, {"measurement": "CysLT1 receptor, competition with [3H]-LTD4", "setting": "[4]", "result": "significantly relevant activity"}]}, {"smiles": "CC(C)c1cccc2c(O)c(C(C(=O)OCCO)c3c(O)c4cccc(C(C)C)c4oc3=O)c(=O)oc12", "note": "[Example 50]", "values": [{"measurement": "inhibition of human 5-LO", "setting": "[1]", "result": "significantly relevant activity"}, {"measurement": "reduction of percentage of eosinophils and/or their total number in BALF and/or by histological scoring", "setting": "[2]", "result": "statistically significant reduction"}, {"measurement": "inhibition of human PDE3 activity", "setting": "[3]", "result": "significantly inhibited"}, {"measurement": "CysLT1 receptor, competition with [3H]-LTD4", "setting": "[4]", "result": "significantly relevant activity"}]}]}
